{"source": "the supplement of paper PMC10307832", "assay_in_all_cases": "relative viability (nuclei count vs DMSO), 5 days (fraction); higher = more cells survive", "key": {"Pazopanib + Pictilisib": {"compound": "Cc1ccc(Nc2nccc(N(C)c3ccc4c(C)n(C)nc4c3)n2)cc1S(N)(=O)=O [Pazopanib] + CS(=O)(=O)N1CCN(Cc2cc3nc(-c4cccc5[nH]ncc45)nc(N4CCOCC4)c3s2)CC1 [Pictilisib] (partner 1 µM)", "how_it_was_run": "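A single step with final 0.05% Triton X-100, 1% formaldehyde and 1 ug/ml Hoechst fixed the cells and stained nuclei 5 days after treatment. Lung cancer cell lines in 1536-well plates had been treated by pin tool the day after seeding with one drug alone or a fixed anchor-drug dose plus five library-drug doses (not always all listed) in √10 steps, and nuclei were counted on 4× images. Relative viability is the ratio of nuclei in treated wells to nuclei in vehicle wells, taken as the median of duplicate plates.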"}, "Ponatinib": {"compound": "Cc1ccc(C(=O)Nc2ccc(CN3CCN(C)CC3)c(C(F)(F)F)c2)cc1C#Cc1cnc2cccnn12 [Ponatinib]", "how_it_was_run": "(§1)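 Five library-drug doses, separated by factors of √10, were pinned into 1536-well plates holding lung cancer cell lines after an overnight stay at 37 °C. Cells were fixed, permeabilised and Hoechst-stained in one step after 5 days without medium change, then imaged at 4×. Viability compares treated-well with vehicle-well nuclei, counted in MetaXpress, as a median across plates. Passing plates had control CV below 25% and at least one doubling.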"}, "Pazopanib": {"compound": "Cc1ccc(Nc2nccc(N(C)c3ccc4c(C)n(C)nc4c3)n2)cc1S(N)(=O)=O [Pazopanib]", "how_it_was_run": "as §1"}}}
{"cell line": "UMC-11", "values": [{"measurement": "relative viability", "setting": "Pazopanib + Pictilisib; first compound 0.01 µM", "result": 0.724}, {"measurement": "relative viability", "setting": "Pazopanib + Pictilisib; first compound 0.03162 µM", "result": 0.879}, {"measurement": "relative viability", "setting": "Pazopanib + Pictilisib; first compound 0.1 µM", "result": 0.787}, {"measurement": "relative viability", "setting": "Pazopanib + Pictilisib; first compound 0.3162 µM", "result": 0.928}, {"measurement": "relative viability", "setting": "Pazopanib + Pictilisib; first compound 1 µM", "result": 1.13}, {"measurement": "relative viability", "setting": "Ponatinib; 0.002 µM", "result": 0.914}, {"measurement": "relative viability", "setting": "Ponatinib; 0.006325 µM", "result": 0.945}, {"measurement": "relative viability", "setting": "Ponatinib; 0.06325 µM", "result": 1.07}, {"measurement": "relative viability", "setting": "Ponatinib; 0.2 µM", "result": 0.99}, {"measurement": "relative viability", "setting": "Pazopanib; 0.01 µM", "result": 0.828}, {"measurement": "relative viability", "setting": "Pazopanib; 0.03162 µM", "result": 1.01}, {"measurement": "relative viability", "setting": "Pazopanib; 0.1 µM", "result": 1.01}, {"measurement": "relative viability", "setting": "Pazopanib; 0.3162 µM", "result": 1.03}, {"measurement": "relative viability", "setting": "Pazopanib; 1 µM", "result": 1.11}]}
